We go through four molecules from PMC9579194, “Selective macrocyclic peptide modulators of Lys63-linked ubiquitin chains disrupt DNA damage repair” (Nature Communications, 2022).

Molecules are shown by their SMILES. “And” between values parts separate entries of the source, which are not always exact repeats. Identical values can stand only once. Like-named read-outs stand apart in the source and are kept apart here. *1 amine or outer side, *2 acyl side, *3 side chain or, on linkers, in order; H or OH if unused. Where a SMILES comes first, the peptide text is derived from it. Bridges are numbered along the chain shown (N, C = ends). The star is where a group is joined. Fluorescein(5-Mal) = O=C1OC2(c3ccc(O)cc3Oc3cc(O)ccc32)c2ccc(N3C(=O)CC(*)C3=O)cc21; X2 = CN(C)c1ccc2c(-c3ccc(N4C(=O)CC(*)C4=O)cc3C(=O)[O-])c3ccc(=[N+](C)C)cc-3oc2c1; X1 = O=C(c1cccc(C[*:2])c1)[*:1]; X3 = Fc1c(F)c(F)c(*)c(F)c1F

In one series the target is T1, Lys63 linked Di-Ub (Homo sapiens, UniProt P0CG48).
T1 construct: made in house; host or cells: total chemical synthesis (Fmoc-SPPS, ligation, desulfurization)
The experiment in a line: KD determination of fluorophore-labeled cyclic peptides, fluorescence-based assay. The series is classed as binding. Conditions: for Kd: fluorophore-labeled peptide, Y = Bmax*X/(KD + X); for Reading-1 / Reading-2 / Reading-3: raw fluorescence, blank not subtracted, Experiments 1-3. As for the experimental part: (ii) Determination of KD value of CP1-FITC
According to the described procedure in literature,3 the KD value of FITC-labeled cyclic peptide 1 (CP1- […]
Supplementary Fig. 25 The carve represents the binding of CP1-FITC to Lys63 linked Di-Ub. Using Y = […]
All measurements were performed in three independent experiments. Bars represent mean values. All source data are provided as a Source […]
(iii) Determination of KD value of CP1-TAMRA
The fluorescence values were measured (λex = 510 nm and λem = 565 nm) in a similar way as described for CP1-FITC. The dissociation constant (KD) value of TAMRA-labeled CP1 (CP1-TAMRA) was calculated as 101.9 ± 3.6 nM. All measurements were performed in triplicates.
Supplementary Fig. 26 The carve represents the binding of CP1-TAMRA to Lys63 linked Di-Ub. Using […]
performed in triplicates. All measurements were performed in three independent experiments. Bars represent mean values. All source data are provided as a Source data file. […]
(iv) Determination of KD value of 2-FITC, 29
The dissociation constant (KD) value of FITC-labeled cyclic peptide 29 was calculated as 43.2± 4 nM.
Supplementary Fig. 27 The carve represents the binding of 2-FITC to Lys63 linked Di-Ub. Using Y = […]
All measurements were performed in triplicates. All measurements were performed in three independent experiments. Bars represent mean values. All source data are provided as a Source data file .
(v) Determination of KD value of 2-TAMRA, 26
CP1-FITC. The dissociation constant (KD) value of TAMRA-labeled 26 (2-TAMRA) was calculated as 47.4 ± 5.9 nM. All measurements were performed in triplicates.
Supplementary Fig. 28 The carve represents the binding of 2-TAMRA to Lys63 linked Di-Ub. Using Y = […]
in triplicates. All measurements were performed in three independent experiments. Bars represent mean […]
(vi) Determination of KD value of FITC labeled cyclic peptide 27a for cyclic peptide 20 […]
Supplementary Fig. 29 The carve represents the binding of 27a to Lys63 linked Di-Ub. Using Y = […]
values. All source data are provided as a Source data file. […]

Series [1] concerns U2OS cells.
Description: (§1) Cells were seeded for 24 h on Ibidi 8 well µ-slides treated with poly-L-lysine to reach ~90% confluency. Cells were then washed three times with warm PBS followed by incubation for 1 h with a warm serum-free medium (DMEM) containing peptides. Thereafter, cells were washed two times with warm PBS. Prior to imaging, cells were washed with an optical culture medium and stained with Hoechst (2 µg/ml). Live cell CLSM images were captured using Confocal Zeiss LSM 710 equipped with 40× NA 1.2 water immersion objective lens using a 1 AU pinhole settings. Different lasers were used for the different tags (Hoechst, TAMRA, FITC), and during analysis, the µ-slide was kept at 37 °C in a humidified chamber. Images were analyzed using ZEN 3.2 (blue edition).
The test system of series [2] is U2OS cells. The experiment in a line: Cell uptake study by confocal microscopy. The conditions noted are these: live U2OS cells, 1 h, laser scanning confocal microscopy.
Description: as §1
The subject of another series is cells. The series can be described thus: Cell membrane integrity analysis, SYTOX blue assay. Conditions: up to 2 μM of cyclic peptides. The series is classed as cell-based. As for the experimental part:
To assess the cell toxicity due to the loss of membrane integrity within the concentration range used for efficient live-cell delivery of synthetic cyclic peptide molecules, we proceed similarly to the cell uptake experiment and stain the cells with SYTOX™ Blue (100 nM)[44]. SYTOX™ blue dead cell stain is a high-affinity nucleic acid stain that easily penetrates cells with compromised plasma membranes but will not cross uncompromised cell membranes. […] CLSM images were analyzed using ZEN 3.2 (blue edition).

As usually defined, the Kd is the equilibrium constant for the complex coming apart. Take `CC[C@H](C)[C@@H]1NC(=O)[C@H](Cc2c[nH]c3ccccc23)NC(=O)[C@H]([C@@H](C)CC)NC(=O)[C@H](CC(C)C)NC(=O)[C@H](CSc2c(F)c(F)c(F)c(F)c2F)NC(=O)c2cccc(c2)CSC[C@@H](C(=O)NCC(=O)N[C@@H](C)C(=O)N[C@@H](CSC2CC(=O)N(c3ccc4c(c3)C(=O)OC43c4ccc(O)cc4Oc4cc(O)ccc43)C2=O)C(N)=O)NC(=O)[C@H](CC(C)C)NC(=O)[C@H]([C@@H](C)CC)NC(=O)[C@H](Cc2ccc(O)cc2)NC(=O)[C@@H]2CCCN2C(=O)[C@H](CC(N)=O)NC(=O)[C@H](CCCCN)NC(=O)[C@H](CO)NC(=O)[C@H](CO)NC(=O)CNC1=O` (stereo partly drawn) [27a] (C(X3)LIWIGSSKNPYILCGAC(Fluorescein(5-Mal))-NH2; linker N-15 via X1): the Kd on Lys63 linked Di-Ub was 0.285 ± 0.0119 µM.

In the case of `CC[C@H](C)[C@@H]1NC(=O)[C@H](Cc2c[nH]c3ccccc23)NC(=O)[C@H]([C@@H](C)CC)NC(=O)[C@H](CC(C)C)NC(=O)[C@H](CC(C)C)NC(=O)c2cccc(c2)CSC[C@@H](C(=O)NCC(=O)N[C@@H](C)C(=O)N[C@@H](CSC2CC(=O)N(c3ccc4c(c3)C(=O)OC43c4ccc(O)cc4Oc4cc(O)ccc43)C2=O)C(N)=O)NC(=O)[C@H](CC(C)C)NC(=O)[C@H]([C@@H](C)CC)NC(=O)[C@H](Cc2ccc(O)cc2)NC(=O)[C@@H]2CCCN2C(=O)[C@H](CC(N)=O)NC(=O)[C@H](CCCCN)NC(=O)[C@H](CO)NC(=O)[C@H](CO)NC(=O)CNC1=O` (stereo partly drawn) [CP1-FITC] (LLIWIGSSKNPYILCGAC(Fluorescein(5-Mal))-NH2; linker N-15 via X1), the Reading-1 was 1192 and 1298 and 1136 on Lys63 linked Di-Ub (conc. 10 nM); 1625 and 1719 and 1573 at Lys63 linked Di-Ub (conc. 20 nM); 2317 and 2485 and 2207 at Lys63 linked Di-Ub (conc. 40 nM); 2713 and 2954 and 2674 on Lys63 linked Di-Ub (conc. 50 nM); 3252 and 3463 and 3183 at Lys63 linked Di-Ub (conc. 100 nM); 3598 and 3825 and 3755 on Lys63 linked Di-Ub (conc. 150 nM). Besides, the Reading-1 was 4108 and 4275 and 4422 on Lys63 linked Di-Ub (conc. 200 nM); 4518 and 4629 and 4716 on Lys63 linked Di-Ub (conc. 250 nM); 4808 and 4979 and 5034 on Lys63 linked Di-Ub (conc. 300 nM). For the same molecule, the Reading-2 on Lys63 linked Di-Ub (conc. 10 nM) was 1174 and 1279 and 1151; on Lys63 linked Di-Ub (conc. 20 nM), 1643 and 1748 and 1595; at Lys63 linked Di-Ub (conc. 40 nM), 2298 and 2498 and 2217; at Lys63 linked Di-Ub (conc. 50 nM), 2756 and 2925 and 2696; on Lys63 linked Di-Ub (conc. 100 nM), 3236 and 3622 and 3192; on Lys63 linked Di-Ub (conc. 150 nM) it was 3624 and 3817 and 3779. The Reading-2 on Lys63 linked Di-Ub (conc. 200 nM) is 4147 and 4231 and 4454; on Lys63 linked Di-Ub (conc. 250 nM) it was 4536 and 4677 and 4749; at Lys63 linked Di-Ub (conc. 300 nM) it was 4853 and 4995 and 5045. Moreover, the Reading-3 on Lys63 linked Di-Ub (conc. 10 nM) was 1201 and 1288 and 1189; at Lys63 linked Di-Ub (conc. 20 nM), 1657 and 1774 and 1588; on Lys63 linked Di-Ub (conc. 40 nM), 2354 and 2474 and 2221; at Lys63 linked Di-Ub (conc. 50 nM) it was 2732 and 2851 and 2602; on Lys63 linked Di-Ub (conc. 100 nM), 3249 and 3477 and 3196; at Lys63 linked Di-Ub (conc. 150 nM) it was 3602 and 3844 and 3784. In addition, the Reading-3 was 4171 and 4244 and 4397 at Lys63 linked Di-Ub (conc. 200 nM); 4549 and 4687 and 4765 at Lys63 linked Di-Ub (conc. 250 nM); 4869 and 4968 and 5076 at Lys63 linked Di-Ub (conc. 300 nM).

Turning to `CC[C@H](C)[C@@H]1NC(=O)[C@H](Cc2c[nH]c3ccccc23)NC(=O)[C@H]([C@@H](C)CC)NC(=O)[C@H](CC(C)C)NC(=O)[C@H](CS)NC(=O)c2cccc(c2)CSC[C@@H](C(=O)NCC(=O)N[C@@H](C)C(=O)N[C@@H](CSC2CC(=O)N(c3ccc4c(c3)C(=O)OC43c4ccc(O)cc4Oc4cc(O)ccc43)C2=O)C(N)=O)NC(=O)[C@H](CC(C)C)NC(=O)[C@H]([C@@H](C)CC)NC(=O)[C@H](Cc2ccc(O)cc2)NC(=O)[C@@H]2CCCN2C(=O)[C@H](CC(N)=O)NC(=O)[C@H](CCCCN)NC(=O)[C@H](CO)NC(=O)[C@H](CO)NC(=O)CNC1=O` (stereo partly drawn) [2-FITC] (CLIWIGSSKNPYILCGAC(Fluorescein(5-Mal))-NH2; linker N-15 via X1), in the series on U2OS cells [1], the “cell-permeability / delivery to cells” value was “did not observe an efficient delivery”. Besides, the Kd on Lys63 linked Di-Ub was 0.0432 ± 0.004 µM.

For `CC[C@H](C)[C@@H]1NC(=O)[C@H](Cc2c[nH]c3ccccc23)NC(=O)[C@H]([C@@H](C)CC)NC(=O)[C@H](CC(C)C)NC(=O)[C@H](CS)NC(=O)c2cccc(c2)CSC[C@@H](C(=O)NCC(=O)N[C@@H](C)C(=O)N[C@@H](CSC2CC(=O)N(c3ccc(-c4c5ccc(=[N+](C)C)cc-5oc5cc(N(C)C)ccc45)c(C(=O)[O-])c3)C2=O)C(N)=O)NC(=O)[C@H](CC(C)C)NC(=O)[C@H]([C@@H](C)CC)NC(=O)[C@H](Cc2ccc(O)cc2)NC(=O)[C@@H]2CCCN2C(=O)[C@H](CC(N)=O)NC(=O)[C@H](CCCCN)NC(=O)[C@H](CO)NC(=O)[C@H](CO)NC(=O)CNC1=O` (stereo partly drawn) [2-TAMRA] (CLIWIGSSKNPYILCGAC(X2)-NH2; linker N-15 via X1), the “cell-permeability / delivery to cells” value in the series on U2OS cells [2] is given as “efficient cell-permeability”. In the series with cells, the “SYTOX signal (cell membrane integrity)” value is “did not detect SYTOX signal”. The Kd on Lys63 linked Di-Ub was found to be 0.0474 ± 0.0059 µM.
